Source: patent US10590086B2, “Pharmaceutical compound” (IOmet Pharma Ltd., priority 2014, dated 2020)

Key:
IDO [1] = target: T1, IDO (Homo sapiens, UniProt P14902); test: SKOV3 kynurenine cell-based assay (IDO induced by IFN-γ); set-up: IDO expression was induced in the SKOV3 cells by the addition of 500 ng/ml IFN-γ; endogenous in cells; host or cells: SKOV3 (human ovarian adenocarcinoma), induced with IFN-γ; details: 48 hours, read-out: SKOV3 Kynurenine cell based assay pIC50 (converted)
Procedure, shortened: (§1)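 A172 glioblastoma cells (TDO) or SKOV3 ovarian cells (IDO, induced with 500 ng/ml IFN-γ) were grown in phenol red-free RPMI with 10% FCS, 2 mM L-glutamine and 500 μM L-tryptophan, ± test compound, 48 hours at 37° C. Supernatant kynurenine was measured by absorbance at 490 nm after Erhlich's reagent.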

TDO [2] = target: T2, TDO (Homo sapiens, UniProt P48775); test: A172 kynurenine cell-based assay; set-up: This assay utilised cancer cells which expressed either TDO or IDO; endogenous in cells; host or cells: A172 (human glioblastoma); details: A172 human glioblastoma cells, 48 hours, read-out: A172 Kynurenine cell based assay pIC50 (converted)
Procedure, shortened: as §1

IDO [3] = target: T1, IDO; test: hIDO biochemical coupled assay; details: 45 μM L-tryptophan, read-out: hIDO biochemical assay pIC50 (converted)
Excerpt: Two different assays were employed: 1. a cell-based assay for detecting the effect of test compounds on kynurenine production in two different cancer cell types. This assay utilised cancer cells which expressed either TDO or IDO and as such was used as a means of testing compound activity at these two enzymes in a cell-based context. 2. a TDO and IDO biochemical coupled assay which utilised recombinantly produced and purified TDO and IDO enzymes in combination with the enzyme formamidase. This coupled enzyme system allowed conversion of N-formylkynurenine produced by TDO or IDO activity to kynurenine which was then quantified by fluorescence following addition of Erhlich's Reagent The protocols for these are set out below.

TDO [4] = target: T2, TDO; test: hTDO biochemical coupled assay; details: 330 μM L-tryptophan, read-out: hTDO biochemical assay pIC50 (converted)
[5] = SKOV3 cells, IDO induced by 500 ng/ml IFN-γ
[6] = SKOV3 human ovarian adenocarcinoma cells, 500 ng/ml IFN-γ, 500 μM L-tryptophan

T1 sequence (P14902 whole entry): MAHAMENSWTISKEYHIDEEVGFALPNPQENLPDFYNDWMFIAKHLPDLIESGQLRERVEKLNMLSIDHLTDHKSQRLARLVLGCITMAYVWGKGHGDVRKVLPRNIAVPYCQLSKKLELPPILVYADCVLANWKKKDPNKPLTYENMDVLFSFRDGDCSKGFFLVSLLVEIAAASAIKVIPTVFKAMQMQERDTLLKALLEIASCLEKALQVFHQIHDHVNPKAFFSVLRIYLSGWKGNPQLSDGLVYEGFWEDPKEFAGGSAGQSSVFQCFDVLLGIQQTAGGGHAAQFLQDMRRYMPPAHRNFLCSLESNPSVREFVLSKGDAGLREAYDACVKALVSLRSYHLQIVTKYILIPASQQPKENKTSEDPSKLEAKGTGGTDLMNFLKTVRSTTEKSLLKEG
T2 sequence (P48775 whole entry): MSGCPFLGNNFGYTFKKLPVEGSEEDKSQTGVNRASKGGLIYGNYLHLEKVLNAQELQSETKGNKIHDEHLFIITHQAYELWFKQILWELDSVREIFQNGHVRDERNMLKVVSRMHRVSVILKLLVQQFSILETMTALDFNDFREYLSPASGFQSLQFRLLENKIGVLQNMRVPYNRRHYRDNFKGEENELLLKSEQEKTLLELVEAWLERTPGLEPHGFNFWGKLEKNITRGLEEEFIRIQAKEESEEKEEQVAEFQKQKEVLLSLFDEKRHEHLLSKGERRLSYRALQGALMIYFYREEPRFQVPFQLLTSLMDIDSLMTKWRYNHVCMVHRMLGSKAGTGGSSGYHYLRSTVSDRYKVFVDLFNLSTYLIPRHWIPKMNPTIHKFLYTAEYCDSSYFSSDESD

| Compound | IC50 (IDO [1]; [5]) [µM] | IC50 (IDO [1]; [6]) [µM] | IC50 (TDO [2]; 500 μM L-tryptophan) [µM] | IC50 (TDO [2]) [µM] | IC50 (IDO [3]; 17 minutes, room temperature) [µM] | IC50 (IDO [3]) [µM] | IC50 (TDO [4]; 17 minutes, room temperature) [µM] | IC50 (TDO [4]) [µM] |
| --- | --- | --- | --- | --- | --- | --- | --- | --- |
| CS(=O)(=O)N1CCC(c2cc(Cl)cc3[nH]ncc23)CC1 [Compound 40, 6-chloro-4-(1-(methylsulfonyl)piperidin-4-yl)-1H-indazole] | 8.32 | 3.24 to 31.6 | < 3.16 | 0.0832 | < 3.16 | 2.34 | < 3.16 | 0.302 |
| CC(=O)N1CCN(c2ccc3[nH]ncc3c2)CC1 [Compound 41] | – | > 100 | 3.24 to 31.6 | – | > 100 | – | 32.4 to 100 | – |
| CC1(C)CN(c2cc(Cl)cc3[nH]ncc23)CCN1S(C)(=O)=O [Compound 45, 6-chloro-4-(3,3-dimethyl-4-(methylsulfonyl)piperazin-1-yl)-1H-indazole] | 0.372 | < 3.16 | < 3.16 | 0.01 | < 3.16 | 0.447 | < 3.16 | 0.263 |
| CC1(C)CN(c2cc(C(F)(F)F)cc3[nH]ncc23)CCN1S(C)(=O)=O [Compound 78] | – | < 3.16 | < 3.16 | – | 3.24 to 31.6 | – | < 3.16 | – |
| CC1(C)CN(c2cc(Br)cc3[nH]ncc23)CCN1S(C)(=O)=O [Compound 91] | – | < 3.16 | < 3.16 | – | < 3.16 | – | < 3.16 | – |
| CS(=O)(=O)NC1CCN(c2cc(Cl)cc3[nH]ncc23)CC1 [Compound 97] | – | 32.4 to 100 | < 3.16 | – | 3.24 to 31.6 | – | < 3.16 | – |
| O=C1NC(=O)C2(CCN(c3cc(Cl)cc4[nH]ncc34)CC2)N1 [Compound 137] | – | < 3.16 | < 3.16 | – | < 3.16 | – | < 3.16 | – |
| Clc1cc(N2CCC(c3ccccc3)CC2)c2cn[nH]c2c1 [Compound 183] | – | 3.24 to 31.6 | < 3.16 | – | 3.24 to 31.6 | – | < 3.16 | – |
| CS(=O)(=O)c1ccc(-c2cc(Cl)cc3[nH]ncc23)cc1 [Compound 192, 6-chloro-4-(4-(methylsulfonyl)phenyl)-1H-indazole] | 5.62 | 3.24 to 31.6 | < 3.16 | 0.0245 | 3.24 to 31.6 | 15.5 | < 3.16 | 0.129 |
| CC(=O)NC1CCN(c2cc(Cl)cc3[nH]ncc23)C1 (centres unmarked) [Compound 198] | – | 3.24 to 31.6 | < 3.16 | – | 3.24 to 31.6 | – | < 3.16 | – |
| NC(=O)C1CCCN(c2cc(Cl)cc3[nH]ncc23)C1 (centres unmarked) [Compound 199] | – | 32.4 to 100 | < 3.16 | – | > 100 | – | < 3.16 | – |
| OC1(c2ccccc2)CCN(c2cc(Cl)cc3[nH]ncc23)CC1 [Compound 207] | – | 3.24 to 31.6 | < 3.16 | – | 3.24 to 31.6 | – | < 3.16 | – |
| CN(C)C(=O)C1CCCN(c2cc(Cl)cc3[nH]ncc23)C1 (centres unmarked) [Compound 209] | – | 32.4 to 100 | 32.4 to 100 | – | > 100 | – | 32.4 to 100 | – |
| CNC(=O)C1CCCN(c2cc(Cl)cc3[nH]ncc23)C1 (centres unmarked) [Compound 210] | – | 32.4 to 100 | 3.24 to 31.6 | – | > 100 | – | 3.24 to 31.6 | – |
| Cc1nc2c([nH]1)CN(c1cc(Cl)cc3[nH]ncc13)CC2 [Compound 211] | – | 32.4 to 100 | 3.24 to 31.6 | – | 32.4 to 100 | – | < 3.16 | – |
| Cc1nc2c([nH]1)CN(c1cc(C(F)(F)F)cc3[nH]ncc13)CC2 [Compound 212] | – | 32.4 to 100 | < 3.16 | – | > 100 | – | < 3.16 | – |
| CC(=O)N(C)c1cc(N2CCN(S(C)(=O)=O)CC2)c2cn[nH]c2c1 [Compound 213] | – | 32.4 to 100 | 32.4 to 100 | – | > 100 | – | > 100 | – |
| C[C@H]1CN(S(C)(=O)=O)CCN1c1cc(C(F)(F)F)cc2[nH]ncc12 [Compound 214] | – | 3.24 to 31.6 | < 3.16 | – | 32.4 to 100 | – | < 3.16 | – |
| O=C1CCC2(CCN(c3cc(Cl)cc4[nH]ncc34)CC2)N1 [Compound 215] | – | 3.24 to 31.6 | < 3.16 | – | 3.24 to 31.6 | – | < 3.16 | – |
| O=C1CCCC2(CCN(c3cc(Cl)cc4[nH]ncc34)CC2)N1 [Compound 216] | – | 3.24 to 31.6 | < 3.16 | – | > 100 | – | < 3.16 | – |
| CC(=O)N1CCC(c2cc(C3CCCC3)cc3[nH]ncc23)CC1 [Compound 217] | – | 32.4 to 100 | > 100 | – | > 100 | – | > 100 | – |
| CS(=O)(=O)N1CCC(c2cc(C3CCCC3)cc3[nH]ncc23)CC1 [Compound 218] | – | 32.4 to 100 | > 100 | – | 32.4 to 100 | – | > 100 | – |

| Compound | IC50 (IDO [1]; [5]) [µM] | IC50 (IDO [1]; [6]) [µM] | IC50 (TDO [2]; 500 μM L-tryptophan) [µM] | IC50 (TDO [2]) [µM] | IC50 (IDO [3]; 17 minutes, room temperature) [µM] | IC50 (IDO [3]) [µM] | IC50 (TDO [4]; 17 minutes, room temperature) [µM] | IC50 (TDO [4]) [µM] |
| --- | --- | --- | --- | --- | --- | --- | --- | --- |
| CC1(C)CN(c2cc(OC(F)(F)F)cc3[nH]ncc23)CCN1S(C)(=O)=O [Compound 219] | – | 3.24 to 31.6 | < 3.16 | – | 3.24 to 31.6 | – | < 3.16 | – |
| NC(=O)C1CCN(c2cc(Cl)cc3[nH]ncc23)CC1 [Compound 226] | – | 3.24 to 31.6 | < 3.16 | – | < 3.16 | – | < 3.16 | – |
| CC1(C)CN(c2cc(Cl)cc3[nH]ncc23)CCN1S(N)(=O)=O [Compound 227] | – | < 3.16 | < 3.16 | – | < 3.16 | – | < 3.16 | – |
| COCCS(=O)(=O)N1CCC(c2cc(Cl)cc3[nH]ncc23)CC1 [Compound 228] | – | 3.24 to 31.6 | < 3.16 | – | 3.24 to 31.6 | – | < 3.16 | – |
| CC(=O)N1C2CCC1CN(c1cc(Cl)cc3[nH]ncc13)C2 [Compound 231] | – | 3.24 to 31.6 | < 3.16 | – | 3.24 to 31.6 | – | < 3.16 | – |
| CS(=O)(=O)N1C2CCC1CN(c1cc(Cl)cc3[nH]ncc13)C2 [Compound 232] | – | 3.24 to 31.6 | < 3.16 | – | 3.24 to 31.6 | – | < 3.16 | – |
| CC(=O)Nc1ccc(-c2cc(Cl)cc3[nH]ncc23)cc1 [Compound 246] | – | 3.24 to 31.6 | < 3.16 | – | > 100 | – | < 3.16 | – |
| CNC(=O)C1CCN(c2cc(Cl)cc3[nH]ncc23)CC1 [Compound 249] | – | 3.24 to 31.6 | < 3.16 | – | 3.24 to 31.6 | – | < 3.16 | – |
| CC(=O)NC1CCN(c2cc(Cl)cc3[nH]ncc23)CC1 [Compound 250] | – | 3.24 to 31.6 | < 3.16 | – | 32.4 to 100 | – | < 3.16 | – |
| CC(=O)N(C)C1CCN(c2cc(Cl)cc3[nH]ncc23)CC1 [Compound 251] | – | 3.24 to 31.6 | < 3.16 | – | < 3.16 | – | < 3.16 | – |
| Cc1nc2c(n1C)CCN(c1cc(Cl)cc3[nH]ncc13)C2 [Compound 252] | – | 32.4 to 100 | < 3.16 | – | > 100 | – | < 3.16 | – |
| CN(C)C(=O)c1ccc(-c2cc(Cl)cc3[nH]ncc23)cc1 [Compound 255] | – | 3.24 to 31.6 | < 3.16 | – | > 100 | – | 3.24 to 31.6 | – |
| NC(=O)c1ccc(-c2cc(Cl)cc3[nH]ncc23)cc1 [Compound 256] | – | 3.24 to 31.6 | < 3.16 | – | > 100 | – | < 3.16 | – |
| CNC(=O)c1ccc(-c2cc(Cl)cc3[nH]ncc23)cc1 [Compound 257] | – | 3.24 to 31.6 | < 3.16 | – | > 100 | – | < 3.16 | – |
| CC(C)(O)c1cc(Cl)cc2[nH]ncc12 [Compound 259] | – | 32.4 to 100 | < 3.16 | – | > 100 | – | < 3.16 | – |
| CC(C)C(O)c1cc(Cl)cc2[nH]ncc12 (centres unmarked) [Compound 260] | – | 3.24 to 31.6 | < 3.16 | – | 3.24 to 31.6 | – | < 3.16 | – |
| CS(=O)(=O)c1ccc(-c2cc(Cl)cc3[nH]ncc23)cc1Cl [Compound 264] | – | < 3.16 | < 3.16 | – | 3.24 to 31.6 | – | < 3.16 | – |
| CS(=O)(=O)c1ccc(-c2cc(Cl)cc3[nH]ncc23)cc1F [Compound 265] | – | 3.24 to 31.6 | < 3.16 | – | 3.24 to 31.6 | – | < 3.16 | – |
| COc1cc(S(C)(=O)=O)ccc1-c1cc(Cl)cc2[nH]ncc12 [Compound 266] | – | 3.24 to 31.6 | < 3.16 | – | > 100 | – | < 3.16 | – |
| O=C1NCC2(CCN(c3cc(Cl)cc4[nH]ncc34)CC2)N1 [Compound 267] | – | 3.24 to 31.6 | < 3.16 | – | 3.24 to 31.6 | – | < 3.16 | – |
| Cc1cc(S(C)(=O)=O)ccc1-c1cc(Cl)cc2[nH]ncc12 [Compound 268] | – | 3.24 to 31.6 | < 3.16 | – | 32.4 to 100 | – | < 3.16 | – |
| NS(=O)(=O)c1ccc(-c2cc(Cl)cc3[nH]ncc23)cc1 [Compound 269] | – | 3.24 to 31.6 | < 3.16 | – | > 100 | – | < 3.16 | – |
